By pIC50 is commonly meant the IC50 on a negative log10 scale, so that one unit is a factor of ten.

Assay [1] has as its system NMDAR-mediated EPSCs, hippocampal neurons. The assay can be described thus: NMDAR-mediated EPSCs in cultured hippocampal neurons, pharmacological characterisation. The class given is cell-based, rat. As for the experimental part:
The impact of the GluN2B mutations was assessed on neuronal NMDARs by evoking network-driven NMDAR-mediated EPSCs in hippocampal neurons transfected with either wild-type or mutant GluN2B constructs. Hippocampal cultures were superfused with Krebs containing 10 μM CNQX and 20 μM bicuculline to block non-NMDA receptor and GABAA receptor-mediated currents, respectively. […] To obtain phase-locked EPSCs, a loose cell-attached patch electrode was used to serially stimulate presynaptic neurons yielding evoked EPSCs in postsynaptic neurons.
The relative contributions of GluN2A and GluN2B subunits to NMDAR-mediated currents (at 13–15 DIV) was assessed using the selective antagonists, TCN213 (30 μM, for GluN2A) and ifenprodil (3 μM, for GluN2B).
Dissected hippocampi were dissociated from E18 Sprague Dawley rat embryos using procedures and protocols that have been approved by the UK Home Office. They were dissociated into single cells using 0.1% w/v trypsin and serially triturated with flame-polished Pasteur pipettes. […] Neurons were transfected after 10 days in vitro (DIV) with either cDNAs for the GluN2B WT or mutants together with DsRed using Effectene (Qiagen) and recorded at 13–15 DIV.
(§1) Cells were voltage clamped at −60 mV.
NMDAR-mediated EPSCs were evoked by direct stimulation of single neighbouring neurons using a loose cell-attached patch electrode filled with Krebs and containing a bipolar stimulating electrode. […] For the pharmacological characterisation of NMDAR-mediated EPSCs, the selective antagonists ifenprodil (+)-hemitartrate (Santacruz biotechnology) and TCN213 (Tocris) were used.
EPSCs were analysed offline using WinWCP (Strathclyde Electrophysiology Software, UK). Peak EPSC amplitude, the area of the EPSC (charge transfer) and EPSC decays were measured. The decay time constants (τ) were determined by fitting the EPSC decays with a double exponential function. The weighted time constant (τw) was calculated using the following equation, where A indicates the relative area of each time constant.3 τw=((A1.τ1)+(A2.τ2))∕A1+A2.

Assay [2] concerns the target T1, GluN1–GluN2B^V618G (Homo sapiens, UniProt Q05586+Q13224, V618G). The assay can be described thus: Ion permeability experiments in Mg2+ or Ca2+ solution, HEK293 cells. The format is cell-based. Also noted: expressed in transfected cells; host or cells: HEK293. Conditions: −60 mV.
From the text: (§2) To assess Mg^2+ permeability the external solution was altered such that Mg^2+ was the only current-carrying cation (Mg^2+ solution). […] The same result was apparent for GluN1–GluN2B^N615I (Fig. 4a; Table 1). […] To assess whether the channel mutants affected Ca^2+ permeation, we modified the external solution to make Ca^2+ the only current-carrying cation[24] (Ca^2+ solution). […] This implied a significant reduction in Ca^2+ permeation for GluN2B^N615I.
as §1

For assay [3], the target named is T2, GluN1–GluN2B^N615I (Homo sapiens, UniProt Q05586+Q13224, N615I). The description is as above. The class given is cell-based. Also noted: expressed in transfected cells; host or cells: HEK293. Conditions: −60 mV.
From the text: as §2, §1

In assay [4] the target is T3, GluN1–GluN2B^WT (Homo sapiens, UniProt Q05586+Q13224). The description is as above. Conditions: −60 mV. Also noted: expressed in transfected cells; host or cells: HEK293. The class given is cell-based.
From the text: as §2, §1

The target of assay [5] is T1, GluN1–GluN2B^V618G. The assay can be described thus: Mg2+ block of glutamate currents in HEK293 cells (concentration–inhibition, I–V, permeation model). Conditions: −60 mV; for Effect of external Mg^2+ on glutamate current (Mg2+ block): 1 μM–10 mM Mg^2+. Also on record: expressed in transfected cells; host or cells: HEK293. The format is cell-based.
Assay [6] deals with T2, GluN1–GluN2B^N615I. Described as above. The class given is cell-based. Also on record: expressed in transfected cells; host or cells: HEK293. Conditions: 1 μM–10 mM Mg^2+, −60 mV.
Assay [7] concerns the target T3, GluN1–GluN2B^WT. Nature of the assay: Mg2+ block of glutamate currents in HEK293 cells (concentration–inhibition, I–V, trapping model). The format is cell-based. Also noted: expressed in transfected cells; host or cells: HEK293.
The subject of assay [8] is GluN1-GluN2A diheteromers. Also on record: method as in PMID 22022974. Conditions: cited from earlier work.
Another assay concerns the target GluN1-GluN2B R540H (Homo sapiens, UniProt Q05586+Q13224, R540H). The assay can be described thus: Glutamate-activated whole-cell currents in HEK293 cells (mutation screen). Conditions: saturating glutamate, -30 mV.
The target of another assay is GluN1-GluN2B L825V (Homo sapiens, UniProt Q05586+Q13224, L825V). Described as above. Conditions: saturating glutamate, -30 mV.
Assay [9] deals with T2, GluN1–GluN2B^N615I. Nature of the assay: Glutamate-activated whole-cell currents in HEK293 cells. Conditions: 10 μM glycine.
Protocol: (§3) We used the alternatively spliced GluN1–4b isoform for co-expression with GluN2B.
(§4) All human NMDAR GluN1 (isoforms GluN1–4b[66]) and GluN2B constructs were cloned into the pRK5 expression vector (CMV promoter) with optimised Kozak sequences.
(§5) Whole-cell currents (in HEK293 cells) and evoked NMDAR-mediated EPSCs (in cultured neurons) were recorded using an AxoPatch 200B amplifier (Molecular Devices, Sunnyvale, CA, USA). […] The experiments using Ca^2+ as the main external ion were performed using a ‘Ca^2+-solution’ containing (mM): 100 CaCl2, 5 HEPES adjusted to pH 7.4 with Ca(OH)2. […] Cells were voltage clamped at −60 mV.
(§6) The rectification index (Ri) is measured from the current-voltage
In the next assay the target is GluN1–GluN2B^C461F (Homo sapiens, UniProt Q05586+Q13224, C461F). The description is as above.
The test system of a further assay is GluN1-GluN2BA636P. Nature of the assay: Glutamate-activated whole-cell currents in HEK293 cells (mutation screen). Conditions: up to 3 mM glutamate.
The next assay concerns the target GluN1-GluN2B R682C (Homo sapiens, UniProt Q05586+Q13224, R682C). The assay is described as above. Conditions: saturating glutamate, -30 mV.
The next assay has as its target GluN1–GluN2B^P553L (Homo sapiens, UniProt Q05586+Q13224, P553L). The assay can be described thus: Glutamate-activated whole-cell currents in HEK293 cells.
The target of assay [10] is T3, GluN1–GluN2B^WT. Nature of the assay: Glutamate-activated whole-cell currents in HEK293 cells (concentration–response, current density, desensitisation).
Protocol: as §3, §4, §5, §6
The next assay has as its system GluN1-GluN2BC456Y. Nature of the assay: Glutamate-activated whole-cell currents in HEK293 cells (mutation screen). Conditions: up to 3 mM glutamate.
For assay [11], the target named is T1, GluN1–GluN2B^V618G. The assay can be described thus: Glutamate-activated whole-cell currents in HEK293 cells.
Protocol: as §3, §4, §5, §6
[12] abbreviates: Ca^2+ solution (100 mM), 10 μM glutamate and 10 μM glycine.
[13] abbreviates: current in Ca^2+ solution as % of current in Krebs.
The mark [14] stands for this setting: 3 μM ifenprodil, 13–15 DIV untransfected neurons.
The mark [15] stands for this setting: Mg^2+ solution (100 mM), 10 μM glutamate and 10 μM glycine.
[16] abbreviates: current in Mg^2+ solution as % of current in Krebs.
Where [17] appears, read: 30 μM TCN213, 13–15 DIV untransfected neurons.
Where [18] appears, read: saturating glutamate, 10 μM glycine, −30 mV.

pIC50, pKd: −log10 of the molar value. Values joined by “and” are separate entries in the source; they are usually repeats but may differ in a detail not shown here. Identical values can stand only once.

T2 sequence (Q13224 27-1484 N615I, other chains not shown): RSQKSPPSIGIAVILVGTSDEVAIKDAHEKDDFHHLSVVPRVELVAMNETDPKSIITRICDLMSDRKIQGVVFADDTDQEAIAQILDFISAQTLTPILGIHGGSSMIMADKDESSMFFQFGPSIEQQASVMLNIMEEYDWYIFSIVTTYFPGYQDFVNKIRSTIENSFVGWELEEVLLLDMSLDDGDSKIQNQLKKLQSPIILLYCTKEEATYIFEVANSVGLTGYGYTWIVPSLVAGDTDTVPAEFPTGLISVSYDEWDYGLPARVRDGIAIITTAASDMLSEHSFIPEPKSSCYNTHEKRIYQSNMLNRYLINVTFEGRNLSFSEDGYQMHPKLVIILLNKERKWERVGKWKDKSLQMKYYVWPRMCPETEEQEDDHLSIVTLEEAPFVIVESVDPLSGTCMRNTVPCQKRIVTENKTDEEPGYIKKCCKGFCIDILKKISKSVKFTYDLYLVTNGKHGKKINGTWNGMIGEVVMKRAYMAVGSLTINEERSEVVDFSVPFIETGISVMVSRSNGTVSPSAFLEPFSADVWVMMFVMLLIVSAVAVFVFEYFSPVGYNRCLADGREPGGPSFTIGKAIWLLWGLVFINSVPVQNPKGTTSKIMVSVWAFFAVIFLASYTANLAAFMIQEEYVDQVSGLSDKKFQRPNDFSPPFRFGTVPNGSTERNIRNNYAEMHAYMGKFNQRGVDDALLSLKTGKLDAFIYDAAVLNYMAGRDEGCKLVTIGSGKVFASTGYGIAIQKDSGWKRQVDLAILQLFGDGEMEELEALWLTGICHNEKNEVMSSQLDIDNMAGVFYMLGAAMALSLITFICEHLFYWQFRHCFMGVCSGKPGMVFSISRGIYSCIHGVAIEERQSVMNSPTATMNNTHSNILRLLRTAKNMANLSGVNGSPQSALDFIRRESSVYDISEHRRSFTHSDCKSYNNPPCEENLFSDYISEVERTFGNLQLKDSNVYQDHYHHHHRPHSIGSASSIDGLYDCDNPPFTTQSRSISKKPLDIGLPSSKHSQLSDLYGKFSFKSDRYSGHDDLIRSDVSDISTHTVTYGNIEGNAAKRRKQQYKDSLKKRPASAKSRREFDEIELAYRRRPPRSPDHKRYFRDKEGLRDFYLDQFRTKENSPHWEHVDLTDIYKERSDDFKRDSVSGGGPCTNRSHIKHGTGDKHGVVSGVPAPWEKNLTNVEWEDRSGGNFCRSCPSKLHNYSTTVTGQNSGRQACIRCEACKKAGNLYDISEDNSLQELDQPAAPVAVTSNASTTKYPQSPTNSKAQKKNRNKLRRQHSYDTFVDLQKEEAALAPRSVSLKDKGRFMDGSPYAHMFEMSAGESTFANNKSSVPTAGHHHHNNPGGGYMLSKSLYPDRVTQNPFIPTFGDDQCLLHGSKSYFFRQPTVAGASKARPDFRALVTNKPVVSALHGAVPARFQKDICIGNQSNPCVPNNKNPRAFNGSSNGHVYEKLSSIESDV
T3 sequence (Q13224 27-1484, other chains not shown): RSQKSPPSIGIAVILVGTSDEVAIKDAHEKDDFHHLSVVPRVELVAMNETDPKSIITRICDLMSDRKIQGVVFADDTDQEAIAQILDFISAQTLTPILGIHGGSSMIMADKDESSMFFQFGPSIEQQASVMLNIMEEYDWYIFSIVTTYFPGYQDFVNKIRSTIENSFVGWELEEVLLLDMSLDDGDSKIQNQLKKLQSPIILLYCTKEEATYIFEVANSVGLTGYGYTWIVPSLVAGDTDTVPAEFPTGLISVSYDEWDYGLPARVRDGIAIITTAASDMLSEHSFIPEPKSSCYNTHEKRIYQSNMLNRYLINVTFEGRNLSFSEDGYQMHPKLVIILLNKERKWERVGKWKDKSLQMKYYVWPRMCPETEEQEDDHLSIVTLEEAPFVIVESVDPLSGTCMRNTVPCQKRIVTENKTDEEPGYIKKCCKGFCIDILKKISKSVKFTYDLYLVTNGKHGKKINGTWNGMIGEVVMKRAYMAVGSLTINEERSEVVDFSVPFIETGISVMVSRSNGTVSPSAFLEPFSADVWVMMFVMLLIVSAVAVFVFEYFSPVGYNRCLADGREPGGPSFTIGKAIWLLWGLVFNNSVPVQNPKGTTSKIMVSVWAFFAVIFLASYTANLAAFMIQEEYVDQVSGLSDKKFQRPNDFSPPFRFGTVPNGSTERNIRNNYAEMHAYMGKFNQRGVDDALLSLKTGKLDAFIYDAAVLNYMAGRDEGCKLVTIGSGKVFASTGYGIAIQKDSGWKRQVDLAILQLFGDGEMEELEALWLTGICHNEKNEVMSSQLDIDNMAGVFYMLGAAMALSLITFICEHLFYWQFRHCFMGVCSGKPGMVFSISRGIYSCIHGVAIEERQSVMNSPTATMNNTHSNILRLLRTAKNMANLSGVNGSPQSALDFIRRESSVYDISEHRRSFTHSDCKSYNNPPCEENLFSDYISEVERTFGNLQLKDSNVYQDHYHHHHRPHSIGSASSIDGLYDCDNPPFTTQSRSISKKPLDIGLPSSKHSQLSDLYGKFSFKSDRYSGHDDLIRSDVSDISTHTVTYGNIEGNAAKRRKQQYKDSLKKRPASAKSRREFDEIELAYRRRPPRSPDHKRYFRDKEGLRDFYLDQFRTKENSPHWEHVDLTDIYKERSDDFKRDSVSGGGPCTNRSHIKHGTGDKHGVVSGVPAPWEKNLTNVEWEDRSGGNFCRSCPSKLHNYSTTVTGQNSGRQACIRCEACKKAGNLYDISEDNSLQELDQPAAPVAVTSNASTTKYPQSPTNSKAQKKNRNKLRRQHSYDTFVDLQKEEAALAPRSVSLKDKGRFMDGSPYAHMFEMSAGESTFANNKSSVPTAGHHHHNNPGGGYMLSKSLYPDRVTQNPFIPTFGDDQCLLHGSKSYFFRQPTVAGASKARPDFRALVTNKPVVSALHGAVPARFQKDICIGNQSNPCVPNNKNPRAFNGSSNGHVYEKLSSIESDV
GluN1–GluN2B^C461F, sequence (Q13224 27-1484 C461F, other chains not shown): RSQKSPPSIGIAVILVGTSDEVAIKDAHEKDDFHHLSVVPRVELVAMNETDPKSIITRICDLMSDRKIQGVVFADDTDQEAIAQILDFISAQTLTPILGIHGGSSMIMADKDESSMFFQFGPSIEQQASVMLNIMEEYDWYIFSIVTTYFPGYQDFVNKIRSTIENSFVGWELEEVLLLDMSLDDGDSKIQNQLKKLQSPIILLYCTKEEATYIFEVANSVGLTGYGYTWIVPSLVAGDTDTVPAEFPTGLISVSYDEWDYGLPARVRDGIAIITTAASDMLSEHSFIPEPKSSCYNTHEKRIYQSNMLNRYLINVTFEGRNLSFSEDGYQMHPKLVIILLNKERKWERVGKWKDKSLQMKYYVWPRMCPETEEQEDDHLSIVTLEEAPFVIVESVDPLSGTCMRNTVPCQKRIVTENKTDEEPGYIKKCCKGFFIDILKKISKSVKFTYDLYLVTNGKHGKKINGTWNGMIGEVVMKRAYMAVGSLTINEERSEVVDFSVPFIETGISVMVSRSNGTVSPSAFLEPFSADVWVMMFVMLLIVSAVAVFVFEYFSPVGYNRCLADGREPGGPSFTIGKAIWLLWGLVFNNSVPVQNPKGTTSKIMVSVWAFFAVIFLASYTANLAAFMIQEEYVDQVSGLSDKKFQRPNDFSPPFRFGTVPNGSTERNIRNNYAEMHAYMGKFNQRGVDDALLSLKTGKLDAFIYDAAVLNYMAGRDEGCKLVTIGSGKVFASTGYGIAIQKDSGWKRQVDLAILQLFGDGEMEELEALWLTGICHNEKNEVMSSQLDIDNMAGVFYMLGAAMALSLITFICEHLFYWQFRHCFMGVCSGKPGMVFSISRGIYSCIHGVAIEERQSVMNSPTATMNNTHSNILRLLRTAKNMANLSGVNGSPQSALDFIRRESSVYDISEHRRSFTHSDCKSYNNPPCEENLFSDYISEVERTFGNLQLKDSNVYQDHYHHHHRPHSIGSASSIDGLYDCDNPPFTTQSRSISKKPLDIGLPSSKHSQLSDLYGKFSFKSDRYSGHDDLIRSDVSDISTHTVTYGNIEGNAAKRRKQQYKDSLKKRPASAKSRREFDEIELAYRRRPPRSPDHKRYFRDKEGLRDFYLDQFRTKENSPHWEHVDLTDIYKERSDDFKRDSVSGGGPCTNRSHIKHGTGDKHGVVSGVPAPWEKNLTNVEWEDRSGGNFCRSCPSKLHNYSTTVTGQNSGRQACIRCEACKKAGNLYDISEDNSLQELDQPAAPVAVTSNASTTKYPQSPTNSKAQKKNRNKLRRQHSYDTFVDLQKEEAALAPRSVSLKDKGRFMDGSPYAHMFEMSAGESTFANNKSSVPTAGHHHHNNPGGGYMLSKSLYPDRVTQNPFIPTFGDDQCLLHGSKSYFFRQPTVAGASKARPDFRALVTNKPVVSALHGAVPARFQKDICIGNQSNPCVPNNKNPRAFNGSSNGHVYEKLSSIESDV
Protocol for GluN1-GluN2B L825V: as §4, §5, §6
Protocol for GluN1-GluN2B R540H: as §4, §5, §6
Protocol for GluN1-GluN2B R682C: as §4, §5, §6
Protocol for GluN1-GluN2BA636P: as §4, §5, §6
Protocol for GluN1-GluN2BC456Y: as §4, §5, §6
Protocol for GluN1–GluN2B^C461F: as §3, §4, §5, §6
Protocol for GluN1–GluN2B^P553L: as §3, §4, §5, §6

In the case of `N[C@@H](CCCP(=O)(O)O)C(=O)O` [APV], in assay [1] (20 μM APV, 0 Mg^2+, 10 μM CNQX, 20 μM bicuculline), the “Effect on spontaneous/evoked EPSCs” value was “blocked”.
In the case of `[Ca+2]` [Ca^2+], the ICa current density on GluN1–GluN2B^V618G [2] (setting [12]) is on record as −5.00 ± 0.64 pA/pF; against GluN1–GluN2B^N615I [3] (setting [12]) it was −0.47 ± 0.10 pA/pF; at GluN1–GluN2B^WT [4] (setting [12]) it was −7.08 ± 2.12 pA/pF. The ICa/IKrebs on GluN1–GluN2B^V618G [2] (setting [13]) is recorded as 46.28 ± 3.18%; against GluN1–GluN2B^N615I [3] (setting [13]) it was 11.07 ± 1.04%; at GluN1–GluN2B^WT [4] (setting [13]), 52.83 ± 1.07%.
With `CC(C(O)c1ccc(O)cc1)N1CCC(Cc2ccccc2)CC1` (stereo not drawn) [Ifenprodil, ifenprodil (+)-hemitartrate], in assay [1] (setting [14]), the “Decrease of EPSC decay time” value is listed as 30% and the “Effect on peak EPSC amplitude” value is listed as “reduced the peak EPSC amplitude”.
Consider `[Mg+2]` [Mg^2+], for which the results for the IMg current density at GluN1–GluN2B^V618G [2] (setting [15]), at GluN1–GluN2B^N615I [3] (setting [15]) and at GluN1–GluN2B^WT [4] (setting [15]) were −10.28 ± 2.53 pA/pF, −0.09 ± 0.03 pA/pF and −0.07 ± 0.03 pA/pF, respectively. The IMg/IKrebs was 58.4 ± 9.8% and 58.46 ± 9.8 % at GluN1–GluN2B^V618G [2] (setting [16]); 1.63 ± 0.64% on GluN1–GluN2B^N615I [3] (setting [16]); 0.91 ± 0.37% on GluN1–GluN2B^WT [4] (setting [16]). Moreover, the “Effect of external Mg^2+ on glutamate current (Mg2+ block)” value at GluN1–GluN2B^V618G [5] is recorded as “unaffected by external Mg^2+”; on GluN1–GluN2B^V618G [5] (listed as Mg2+), “insensitive to Mg2+”; on GluN1–GluN2B^N615I [6], “unaffected by external Mg^2+”; on GluN1–GluN2B^N615I [6] (listed as Mg2+), “insensitive to Mg2+”. In addition, the “Change in current at high Mg^2+ concentrations” value at GluN1–GluN2B^V618G [5] (3–10 mM Mg^2+) was “small increase in current”. Also, on GluN1–GluN2B^WT [7] (predicted rate constant, 0 mV), the “k-bi (0mV), Mg2+ unbinding rate constant to inside” value is 25124 s⁻¹. Also, on GluN1–GluN2B^WT [7] (predicted rate constant, 0 mV), the “k-bo (0mV), Mg2+ unbinding rate constant to outside” value was 24686 s⁻¹. Besides, the pKd at GluN1–GluN2B^WT [7] (read-out: Dissociation constant for Mg^2+ binding at −60 mV, trapping block model, −60 mV) is 3.91. Further, on GluN1–GluN2B^WT [7] (read-out: Mg^2+ IC50 (−60 mV), 10 μM glutamate and 10 μM glycine, −60 mV), the pIC50 is 3.85. Moreover, the “δMg, fraction of membrane potential sensed by Mg^2+” value at GluN1–GluN2B^WT [7] (trapping block model fit) worked out at 0.88 ± 0.04.
For the molecule `O=C(CSc1nnc(NCc2ccccc2)s1)NCC1CCCCC1` [TCN213], in [1] (setting [17]), the “Prolongation of EPSC decay” value is 40% and the “Reduction of peak EPSC amplitude” value is reported as 10%. The negative-log IC50 (pIC50) in assay [8] is around 4.52.
On to `N[C@@H](CCC(=O)O)C(=O)O` [glutamate], for which the “Glutamate current density (maximal current/cell capacitance)” value at GluN1-GluN2B R540H is listed as -30.31 ± 7.71 pA/pF; at GluN1-GluN2B L825V, -19.06 ± 3.65 pA/pF; at GluN1–GluN2B^C461F (saturating glutamate, -30 mV) it was -6.49 ± 3.94 pA/pF; on GluN1-GluN2B R682C, -15.34 ± 2.56 pA/pF; at GluN1–GluN2B^P553L (saturating glutamate, -30 mV), -15.31 ± 3.70 pA/pF; on GluN1–GluN2B^WT [10] (saturating glutamate, -30 mV), -20.36 ± 4.54 pA/pF. Besides, the “Glutamate current density (maximal current/cell capacitance)” value on GluN1–GluN2B^V618G [11] (saturating glutamate, -30 mV) is given as -17.55 ± 3.35 pA/pF. Further, the “Hill slope (n) of glutamate concentration–response curve” value at GluN1–GluN2B^N615I [9] is reported as 1.27 ± 0.13; at GluN1–GluN2B^C461F (10 μM glycine), 1.44 ± 0.03; on GluN1–GluN2B^P553L (10 μM glycine), 0.89 ± 0.05; on GluN1–GluN2B^WT [10] (10 μM glycine), 1.45 ± 0.12; at GluN1–GluN2B^V618G [11] (10 μM glycine) it was 1.23 ± 0.12. Besides, the “Reduction of glutamate potency compared to wild-type” value was determined as 71 fold on GluN1–GluN2B^C461F (vs GluN1–GluN2B WT) and 1.7 fold at GluN1–GluN2B^P553L (vs GluN1–GluN2B WT). Moreover, the Glutamate current result in the assay with GluN1-GluN2BA636P and with GluN1-GluN2BC456Y was “No glutamate current was detected” in each case. Further, the “Glutamate current desensitisation decay τ” value is 420.3 ± 30.1 ms on GluN1–GluN2B^P553L (setting [18]) and 21.17 ± 0.31 s at GluN1–GluN2B^WT [10] (setting [18]).

The values are drawn from paper PMC5840332, “Disease-associated missense mutations in GluN2B subunit alter NMDA receptor ligand binding and ion channel properties” (Nature Communications, 2018).
